The values that follow are results of earlier work, collected in patent publication US7612104B2, “Bicyclic aryl-sulfonic acid [1,3,4]-thiadiazol-2-yl-amides, processes for their preparation, pharmaceutical compositions and methods for their use” (Sanofi-Aventis, priority 2005, dated 2009).

Where two headings read alike, the source gives them in different places.

The test system of series [1] is PPARdelta/PPARalpha. The note with it: rhesus and cynomolgus monkeys; cited from earlier work.
In series [2] the test system is PPARdelta/PPARalpha. The note with it: two weeks clinical trials in healthy volunteers; cited from earlier work.
In series [3] the target is T1, PPARdelta (Macaca mulatta, UniProt I0FFS1).
T1 construct: host or cells: rhesus monkeys in vivo
T1 sequence (I0FFS1 1-441): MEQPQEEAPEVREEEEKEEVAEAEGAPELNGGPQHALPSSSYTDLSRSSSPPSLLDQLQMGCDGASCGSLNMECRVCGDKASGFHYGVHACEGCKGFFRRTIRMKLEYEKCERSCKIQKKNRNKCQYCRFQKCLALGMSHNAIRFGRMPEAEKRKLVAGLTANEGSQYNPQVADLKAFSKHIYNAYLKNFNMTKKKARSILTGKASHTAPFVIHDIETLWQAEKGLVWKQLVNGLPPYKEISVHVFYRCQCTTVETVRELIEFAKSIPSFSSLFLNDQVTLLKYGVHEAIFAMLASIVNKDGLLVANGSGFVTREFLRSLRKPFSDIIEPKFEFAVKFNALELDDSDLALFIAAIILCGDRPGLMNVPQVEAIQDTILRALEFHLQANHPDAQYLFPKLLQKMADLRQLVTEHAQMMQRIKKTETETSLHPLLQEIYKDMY
The following applies: obese, insulin resistant rhesus monkeys; cited from earlier work.

In series [4] the test system is PPARdelta. The note with it: diabetic animal model; cited from earlier work.

On to `CCCc1c(OCCCSc2nnc(SCC(=O)O)s2)ccc(C(C)=O)c1O` [YM-16638], for which the plasma lipids result with PPARdelta/PPARalpha [1] was “significantly lowers”; in the series with PPARdelta/PPARalpha [2], “acts in a similar manner”.
In the case of `Cc1cc(SCc2sc(-c3ccc(C(F)(F)F)cc3)nc2C)ccc1OCC(=O)O` [GW501516], at PPARdelta [3], the HDL-cholesterol result is “raises”, the insulin levels entry is listed as “decreases”, the “plasma LDL-cholesterol” value is reported as “decreases” and the triglycerides entry is listed as “decreases”.
Turning to `CCCc1c(OCCCOc2ccc(OCC(=O)O)cc2)ccc(C(C)=O)c1O` [Example L-165041], the plasma cholesterol entry with PPARdelta [4] is “raises plasma cholesterol”.
